# According to ChEMBL document CHEMBL1201862, “PubChem BioAssay data set” (2004):
# The source made the active and inactive calls.
# Target: T1, Protein skinhead-1 (Caenorhabditis elegans, UniProt P34707)
# T1 sequence (P34707 whole entry): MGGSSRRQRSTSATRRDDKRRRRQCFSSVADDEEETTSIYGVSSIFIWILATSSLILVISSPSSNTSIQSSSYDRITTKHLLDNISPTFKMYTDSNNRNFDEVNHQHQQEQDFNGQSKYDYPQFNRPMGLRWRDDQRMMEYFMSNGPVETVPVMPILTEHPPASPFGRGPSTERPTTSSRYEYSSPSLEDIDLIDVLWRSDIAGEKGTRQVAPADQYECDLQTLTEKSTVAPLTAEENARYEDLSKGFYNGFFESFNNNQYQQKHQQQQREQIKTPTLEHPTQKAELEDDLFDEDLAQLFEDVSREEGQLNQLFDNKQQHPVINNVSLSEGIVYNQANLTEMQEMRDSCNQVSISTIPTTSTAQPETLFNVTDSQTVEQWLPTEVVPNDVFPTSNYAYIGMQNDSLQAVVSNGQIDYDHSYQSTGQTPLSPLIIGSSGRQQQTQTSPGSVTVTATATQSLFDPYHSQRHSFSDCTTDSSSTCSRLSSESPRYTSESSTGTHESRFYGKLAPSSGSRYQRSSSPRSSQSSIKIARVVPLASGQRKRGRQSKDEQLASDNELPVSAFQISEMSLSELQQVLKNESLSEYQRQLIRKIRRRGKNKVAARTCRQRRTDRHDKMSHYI
# Format: functional
# Details: not given
row,SMILES,IC50
1,CC(C)C(=O)NCCc1nc(-c2ccccc2Cl)no1,> 100 µM (inactive)
2,c1ccc2sc(-c3ccncc3)nc2c1,54.5 µM (inactive)
3,COc1ccc(-c2cc(-c3ccccc3)[nH]n2)c(O)c1,> 100 µM (inactive)
4,OC(CNC1CCCC1)COc1ccc(-c2ccccc2)cc1 (centres undefined),45.6 µM (active)
5,COc1cc(C(=O)Nc2nccs2)cc(OC)c1OC,> 100 µM (inactive)
6,CC(C)NC(=O)C1(C)CSCC(=O)N1CCCN1CCOCC1 (centres undefined),> 100 µM (inactive)
7,Cc1nnc(SCCn2c(N3CC(C)CC(C)C3)nc3c2c(=O)n(C)c(=O)n3C)s1 (centres undefined),> 100 µM (inactive)
8,COC(=O)c1ccc(S(=O)(=O)N2CCCCCC2)cc1,> 100 µM (inactive)
9,O=C(Nc1ccc(-c2cn3ccsc3n2)cc1)C1COc2ccccc2O1 (centres undefined),> 100 µM (inactive)
10,Cc1ccc(NC(=O)COc2ccc(Br)cc2CO)cc1S(=O)(=O)N1CCOCC1,> 100 µM (inactive)
11,COc1ccc(C2C(C(C)=O)=C(C)N=c3s/c(=C\c4cc(C)n(C)c4C)c(=O)n32)c(OC)c1 (centres undefined),> 100 µM (inactive)
12,Clc1ccsc1-c1ccc2ccccc2n1,16 µM (active)

# Target: Cytochrome P450 2C19 (Homo sapiens, UniProt P33261)
# Test: Cytochrome panel assay with activity outcomes. Panel member name: p450-cyp2c19 Compounds with AC50 equal or less than 10 uM are considered active
# Format: functional
# Details: read-out: AC50
# Chain of Cytochrome P450 2C19 (P33261 whole entry): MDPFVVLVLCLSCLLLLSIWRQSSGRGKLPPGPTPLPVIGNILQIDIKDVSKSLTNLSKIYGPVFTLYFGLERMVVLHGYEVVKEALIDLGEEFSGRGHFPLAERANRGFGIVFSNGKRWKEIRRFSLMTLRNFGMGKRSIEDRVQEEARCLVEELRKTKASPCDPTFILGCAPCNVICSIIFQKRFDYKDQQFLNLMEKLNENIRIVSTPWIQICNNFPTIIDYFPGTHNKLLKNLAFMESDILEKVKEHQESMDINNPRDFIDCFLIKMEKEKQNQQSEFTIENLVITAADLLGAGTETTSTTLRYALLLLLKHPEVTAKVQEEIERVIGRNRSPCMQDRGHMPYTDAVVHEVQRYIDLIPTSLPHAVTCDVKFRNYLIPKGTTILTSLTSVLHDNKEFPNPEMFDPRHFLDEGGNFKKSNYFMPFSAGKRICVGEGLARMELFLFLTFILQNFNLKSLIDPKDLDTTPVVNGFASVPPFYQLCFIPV
row,SMILES,AC50
1,CC[C@H]1C2=C3C(CC[C@H]4C(OCc5ccc(F)cc5C(F)(F)F)OC[C@](C)([C@@H]34)N(C(=O)OC(C)(C)C)C2)C(COC(C)=O)C1COC(C)=O (some centres undefined),15.8 µM (inconclusive)
2,CC(C)[C@@]1(NC(=O)[C@@H]2C[C@H]3c4cccc5[nH]cc(c45)C[C@@H]3N(C)C2)O[C@]2(O)[C@H]3CCCN3C(=O)CN2C1=O,5.01 µM (inconclusive)
3,COc1cc(N)c(Cl)cc1C(=O)N[C@H]1CCN(CCCOc2ccc(F)cc2)C[C@@H]1OC,0.794 µM (active)
4,Cc1ccc(/C=N/NC(=O)Cn2nccc2C)o1,11.2 µM (inconclusive)
5,CCCn1nc2cc(C(=O)NCc3ccc(C)cc3)ccc2c1OC,22.4 µM (inconclusive)
6,Cn1c(=O)c2cn(-c3ccccc3)cc2n(C)c1=O,17.8 µM (inconclusive)

# System: not listed separately
# Test: viability of uninfected HEp-2 cells – cell-based, HTS, cytotoxicity control for RSV inhibitor project, dose response (AID 2410)
# Format: functional
# Details: human respiratory syncytial virus
row,SMILES,CC50
1,c1ccc2sc(-c3ccncc3)nc2c1,25.5 µM (active)

# Target: T2, Heat shock factor protein 1 (Mus musculus, UniProt P38532)
# T2 sequence (P38532 whole entry): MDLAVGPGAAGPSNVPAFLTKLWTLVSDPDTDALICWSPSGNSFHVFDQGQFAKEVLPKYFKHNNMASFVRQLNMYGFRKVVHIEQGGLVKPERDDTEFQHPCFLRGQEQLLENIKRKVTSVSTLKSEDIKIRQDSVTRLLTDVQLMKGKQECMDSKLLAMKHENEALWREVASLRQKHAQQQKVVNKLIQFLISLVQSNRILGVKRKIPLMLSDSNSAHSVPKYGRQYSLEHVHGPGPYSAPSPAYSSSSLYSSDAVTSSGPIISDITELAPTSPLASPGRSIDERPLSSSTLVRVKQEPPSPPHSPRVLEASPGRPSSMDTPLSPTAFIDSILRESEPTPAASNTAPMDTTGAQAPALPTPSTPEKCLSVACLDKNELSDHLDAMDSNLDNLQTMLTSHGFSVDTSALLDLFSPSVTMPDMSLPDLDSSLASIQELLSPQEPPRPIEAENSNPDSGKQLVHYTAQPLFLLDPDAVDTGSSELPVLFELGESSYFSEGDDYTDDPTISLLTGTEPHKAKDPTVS
# Test: enhancement of HSF1-driven luciferase signal – cell-based, NIH3T3, luminescence, dose retest, confirmation (AID 435004);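 note: stress induced by proteasome inhibitor MG132 added 30 min after compound; luciferase reporter driven by HSF1 response element in NIH3T3 cells; actives raise luminescence as potentiators of the MG132 stress response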
# Format: functional
# Details: not given
row,SMILES,EC50
1,COCCNC(=O)Cn1cnc2c1c(=O)n(C)c(=O)n2C,> 260 µM (inactive)
2,CCc1n[nH]c2c1C1(CCN(C(=O)OCc3ccccc3)CC1)C(C#N)=C(N)O2,33.9 µM (active)
3,CCOC(=O)c1c[nH]nc1C(F)(F)F,> 260 µM (inactive)
4,CSCC[C@H](NC(=O)N1CCn2c1nc1ccccc12)C(=O)NCc1ccc(F)cc1,> 260 µM (inactive)
5,NC(=O)Cc1ccc2c(c1)[nH]c1ccccc12,> 260 µM (inactive)
6,S=C(Nc1cccc(Cl)c1)N(CCCN1CCCC1)Cc1cccn1Cc1ccc(Cl)cc1,> 120 µM (inactive)
7,COc1ccc(CNC(=O)Oc2ccccc2)cc1Cl,62.3 µM (active)
8,COc1ccc(CNCC(O)COc2ccc(C(C)(C)c3ccccc3)cc2)cc1 (centres undefined),> 260 µM (inactive)
9,O=C(NCCc1cccc(Cl)c1)c1cc2ccccc2oc1=O,> 260 µM (inactive)
10,C/C(Cl)=C/Cc1c(C)nc2ccc(C)cc2c1O,> 260 µM (inactive)
11,CCCCOCCCN1CC(=O)N2[C@@H](Cc3c([nH]c4ccccc34)C2(C)C)C1=O,> 260 µM (inactive)

# Target: Cytochrome P450 2C9 (Homo sapiens, UniProt P11712)
# Details: not given
# Chain of Cytochrome P450 2C9 (P11712 whole entry): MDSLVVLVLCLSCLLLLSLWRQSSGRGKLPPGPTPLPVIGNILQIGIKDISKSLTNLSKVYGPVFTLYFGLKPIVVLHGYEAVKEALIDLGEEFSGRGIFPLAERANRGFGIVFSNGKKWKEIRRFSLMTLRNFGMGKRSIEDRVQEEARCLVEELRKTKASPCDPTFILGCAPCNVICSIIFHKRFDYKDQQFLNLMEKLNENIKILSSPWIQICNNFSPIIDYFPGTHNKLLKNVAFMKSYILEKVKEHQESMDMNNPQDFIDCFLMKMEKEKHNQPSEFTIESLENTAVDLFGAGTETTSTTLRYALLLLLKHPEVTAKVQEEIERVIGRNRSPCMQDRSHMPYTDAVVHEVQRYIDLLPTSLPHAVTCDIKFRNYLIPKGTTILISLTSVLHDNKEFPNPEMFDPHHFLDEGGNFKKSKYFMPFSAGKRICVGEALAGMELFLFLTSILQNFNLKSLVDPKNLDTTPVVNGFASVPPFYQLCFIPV
row,SMILES,AC50
1,CC[C@H]1C2=C3C(CC[C@H]4C(OCc5ccc(F)cc5C(F)(F)F)OC[C@](C)([C@@H]34)N(C(=O)OC(C)(C)C)C2)C(COC(C)=O)C1COC(C)=O (some centres undefined),31.6 µM (inconclusive)
2,CC(C)[C@@]1(NC(=O)[C@@H]2C[C@H]3c4cccc5[nH]cc(c45)C[C@@H]3N(C)C2)O[C@]2(O)[C@H]3CCCN3C(=O)CN2C1=O,6.31 µM (inconclusive)
3,COc1cc(N)c(Cl)cc1C(=O)N[C@H]1CCN(CCCOc2ccc(F)cc2)C[C@@H]1OC,1 µM (active)
4,CCCn1nc2cc(C(=O)NCc3ccc(C)cc3)ccc2c1OC,20 µM (inconclusive)
5,N#Cc1cnn2c(=O)c3c([nH]c12)CCCC3,11.2 µM (inconclusive)
6,N/C(S)=N/CCC[C@@H](N)C(=O)O,15.8 µM (inconclusive)
7,CC(=O)[C@]1(O)CC[C@@H]2[C@H]3C[C@@H](C)C4=CC(=O)CC[C@@]4(C)[C@H]3[C@@H](O)C[C@]21C,7.94 µM (inconclusive)
8,CC(C)c1ccc(C(=O)CC2(O)C(=O)N(CN3CCOCC3)c3ccccc32)cc1 (centres undefined),12.6 µM (inconclusive)
9,O=C(CCn1nc(-c2ccc(Cl)cc2)ccc1=O)N1CCOCC1,10 µM (inconclusive)
10,Cn1c(=O)c2cn(-c3ccccc3)cc2n(C)c1=O,25.1 µM (inconclusive)
11,CCN(CC)S(=O)(=O)c1cccc(C(=O)N[C@H](C(=O)OCC(=O)NC(=O)NC)C(C)C)c1,0.708 µM (inconclusive)

# System: not listed separately
# Test: Trypanosoma cruzi growth suppression in host cells – NIH3T3 host cells, beta-gal luminescence, confirmation (AID 2044);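 note: intracellular parasites grown in NIH/3T3 mouse fibroblasts as host cells; luminescent beta-galactosidase reporter signal from transgenic T. cruzi replicating inside host cells; inhibitors lower the luminescence signal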
# Format: functional, cell-based
# Details: not given
row,SMILES,EC50
1,C/C(Cl)=C/Cc1c(C)nc2ccc(C)cc2c1O,0.324 µM (active)

# Target: T2, Heat shock factor protein 1
# Test: decrease of HSF1-responsive luciferase luminescence – cell-based, NIH3T3, dose retest, confirmation (AID 2382);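 note: NIH3T3 fibroblasts with HSF1-driven luciferase reporter stressed by proteasome inhibitor MG132; luminescence from HSF1-driven luciferase expression after 8 hours of MG132 stress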
# Format: functional
# Details: not given
row,SMILES,EC50
1,CCOC(=O)C[n+]1c(C)csc1C,> 195 µM (not active)
2,Cc1oc2ccc(OCc3c(F)cccc3Cl)cc2c1C(=O)O,> 195 µM (not active)
3,O=C(NCc1ccco1)c1ccccc1-c1ccc(C(F)(F)F)cc1,> 195 µM (not active)
4,CS(=O)(=O)c1ccc(NC(=O)c2ccc3c(c2)S(=O)(=O)N=C2CCCCCN23)cc1,> 195 µM (not active)
5,COc1ccccc1CNC(=O)C(C)NS(=O)(=O)c1ccc(Br)cc1 (centres undefined),> 195 µM (not active)
6,O=C(Cn1nc(-c2ccccc2)ccc1=O)N1CCCCC1,> 195 µM (not active)
7,C=CCn1c(S)nnc1-c1cccc2ccccc12,> 195 µM (not active)
8,O=C1c2ccccc2C(O)N1c1ccccc1 (centres undefined),> 195 µM (not active)
9,C=CCNC(=S)Nc1sc2c(c1C#N)CCCC2,> 195 µM (not active)
10,COc1cccc(C(=O)c2c[nH]c(C(=O)NCc3ccco3)c2)c1,19.9 µM (active)
11,Cc1ccc(N2C(=O)N(CC(=O)NC(N)=O)C(=O)C2C)cc1 (centres undefined),> 195 µM (not active)
12,CCOC(=O)N1CCN(C(=O)C2CCN(Cc3ccc(OC)cc3OC)CC2)CC1,> 195 µM (not active)
13,O=C(Cn1cc([N+](=O)[O-])cn1)NCC1CCCO1 (centres undefined),> 195 µM (not active)

# System: not listed separately
# Test: NIH3T3 cell viability loss – ATP luminescence, mouse fibroblasts, counter-screen, dose response (AID 2010);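 note: cells exposed to compound for about 90 hours before reading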
# Format: functional, cell-based
# Details: not given
row,SMILES,EC50
1,C/C(Cl)=C/Cc1c(C)nc2ccc(C)cc2c1O,> 30 µM (not active)

# Target: Cytochrome P450 3A4 (Homo sapiens, UniProt P08684);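 note: CYP3A4 tested as one member of a cytochrome P450 panel screen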
# Details: not given
# Chain of Cytochrome P450 3A4 (P08684 whole entry): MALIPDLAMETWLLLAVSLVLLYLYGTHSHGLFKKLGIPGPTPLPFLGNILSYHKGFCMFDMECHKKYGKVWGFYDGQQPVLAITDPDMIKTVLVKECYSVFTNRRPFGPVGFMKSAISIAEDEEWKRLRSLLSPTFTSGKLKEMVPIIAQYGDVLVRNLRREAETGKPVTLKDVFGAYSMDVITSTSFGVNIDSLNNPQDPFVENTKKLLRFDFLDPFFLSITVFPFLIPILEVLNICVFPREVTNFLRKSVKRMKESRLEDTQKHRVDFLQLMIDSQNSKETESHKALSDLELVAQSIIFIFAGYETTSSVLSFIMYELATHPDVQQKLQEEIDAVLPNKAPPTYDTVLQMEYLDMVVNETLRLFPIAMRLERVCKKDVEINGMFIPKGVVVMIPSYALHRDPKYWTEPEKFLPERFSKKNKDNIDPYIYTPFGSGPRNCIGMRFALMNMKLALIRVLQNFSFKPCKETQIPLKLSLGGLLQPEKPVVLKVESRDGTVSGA
row,SMILES,AC50
1,CC[C@H]1C2=C3C(CC[C@H]4C(OCc5ccc(F)cc5C(F)(F)F)OC[C@](C)([C@@H]34)N(C(=O)OC(C)(C)C)C2)C(COC(C)=O)C1COC(C)=O (some centres undefined),2.51 µM (inconclusive)
2,CC(C)(C)NC(=O)COC(=O)c1cncc(Br)c1,15.8 µM (inconclusive)
3,N/C(S)=N/CCC[C@@H](N)C(=O)O,0.2 µM (inconclusive)
4,CC(=O)[C@]1(O)CC[C@@H]2[C@H]3C[C@@H](C)C4=CC(=O)CC[C@@]4(C)[C@H]3[C@@H](O)C[C@]21C,3.98 µM (inconclusive)
5,O=C(CCn1nc(-c2ccc(Cl)cc2)ccc1=O)N1CCOCC1,25.1 µM (inconclusive)
6,CCN(CC)S(=O)(=O)c1cccc(C(=O)N[C@H](C(=O)OCC(=O)NC(=O)NC)C(C)C)c1,14.1 µM (inconclusive)

# Target: T3, Cytochrome P450 1A2 (Homo sapiens, UniProt P05177);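 note: PubChem cytochrome P450 panel assay, CYP1A2 panel member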
# T3 sequence (P05177 whole entry): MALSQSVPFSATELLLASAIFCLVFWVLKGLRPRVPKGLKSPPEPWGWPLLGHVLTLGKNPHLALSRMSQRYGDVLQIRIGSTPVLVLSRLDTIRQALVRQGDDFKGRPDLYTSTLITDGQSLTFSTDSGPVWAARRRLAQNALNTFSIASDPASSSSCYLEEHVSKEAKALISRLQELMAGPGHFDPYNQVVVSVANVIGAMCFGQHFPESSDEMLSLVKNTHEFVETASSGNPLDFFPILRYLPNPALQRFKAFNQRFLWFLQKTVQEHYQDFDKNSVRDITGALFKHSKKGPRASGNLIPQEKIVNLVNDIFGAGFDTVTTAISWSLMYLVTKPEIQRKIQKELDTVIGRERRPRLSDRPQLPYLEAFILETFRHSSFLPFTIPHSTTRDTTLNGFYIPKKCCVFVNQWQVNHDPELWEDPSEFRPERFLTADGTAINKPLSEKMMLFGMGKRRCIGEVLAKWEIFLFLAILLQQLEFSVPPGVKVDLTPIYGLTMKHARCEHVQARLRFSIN
# Details: not given
row,SMILES,AC50
1,COC(=O)[C@@H]1[C@@H]2C[C@H]3c4[nH]c5cc(OC)ccc5c4CCN3C[C@@H]2C[C@H](OC(=O)/C=C\c2cc(OC)c(OC)c(OC)c2)[C@H]1OC,3.16 µM (inconclusive)
2,COc1cc(N)c(Cl)cc1C(=O)N[C@H]1CCN(CCCOc2ccc(F)cc2)C[C@@H]1OC,25.1 µM (inconclusive)
3,CC(C)(C)NC(=O)COC(=O)c1cncc(Br)c1,20 µM (inconclusive)
4,C[C@@H](CN)CC(=O)O,39.8 µM (inconclusive)
5,CN(C)c1ccc([C@@H]2N([C@H](C#N)c3ccc(N(C)C)cc3)CCCN2[C@@H](C#N)c2ccc(N(C)C)cc2)cc1,5.01 µM (inconclusive)
6,Cc1ccc(/C=N/NC(=O)Cn2nccc2C)o1,15.8 µM (inconclusive)
7,N[C@@H](Cc1cccnn1)C(=O)O,3.16 µM (inconclusive)
8,CCCCCCCCCCCCCCCC(=O)C(F)(F)F,31.6 µM (inconclusive)
9,CCOC(=O)CCCN,6.31 µM (inconclusive)
10,O[C@H](CN1CCN(c2cccc(Cl)c2)CC1)C(c1ccccc1)c1ccccc1,31.6 µM (inconclusive)

# System: not listed separately
# Test: Luminescence Cell-Based Dose Retest to Confirm Inhibitors of Cancer Stem Cells. [Related pubchem assays (depositor defined):AID2717, AID2721]
# Format: functional, Homo sapiens
# Details: Homo sapiens
row,SMILES,AC50
1,S=C(Nc1cccc(Cl)c1)N(CCCN1CCCC1)Cc1cccn1Cc1ccc(Cl)cc1,6.16 µM (active)
2,COc1ccc(CNCC(O)COc2ccc(C(C)(C)c3ccccc3)cc2)cc1 (centres undefined),3.38 µM (active)
